Earlier results on one compound are cited in patent US20160101176A1, “POLYMERIC HYDROGEL PHARMACEUTICAL COMPOSITIONS WITH ON-DEMAND RELEASE OF A DRUG IN RESPONSE TO A ELECTRICAL STIMULUS” (UNIVERSITY OF THE WITWATERSRAND, JOHANNESBURG, priority 2013, published 2016).

The conditions of series [1]: rat's cardio-vascular system; Elahi et al., 2009.
In the next series the test system is plasma proteins. The settings on record: Raveendran et al., 1992.

Molecules are shown by their SMILES.

As for `COc1ccc2c(c1)c(CC(=O)O)c(C)n2C(=O)c1ccc(Cl)cc1` [indomethacin], the t1/2 in series [1] was 7 to 10 h. Further, in the series with plasma proteins, the protein binding result is on record as “highly protein bound”.
